In the experiment the test system is beta-TC6 cells. Kind of experiment: Insulin HTRF assay, relative activity Ar normalized to sunitinib. Type of experiment: cell-based. As to conditions: Mus musculus, normalized to positive control sunitinib (5 µM = 100%), Table 10. An excerpt:
For further screening of compounds derived from compounds described above for their ability to regulate insulin release an insulin HTRF® (Homogeneous Time-Resolved Fluorescence; Cisbio International, France) was used. This assay is based on two antibodies against insulin binding to different epitopes of insulin. One of these antibodies is coupled to Europium (Ab-Eu-Cryptate) and the other one to the fluorophore XL665 (Ab-XL665). Is insulin secreted into the supernatant of cell culture both antibodies can bind to insulin and come therefore into close proximity which allows upon excitation that energy transfer between (FRET) the long-life fluorescent donor Europium (cryptate) and the acceptors XL665. FRET increases proportionally with insulin concentration.
The automated assay protocol is as follows: • On day 1 15k beta-TC6 cells per well were seeded for 24 or 48 h in 50 µl complete medium. On day 2 or respective on day 3 the medium is removed and cells are washed with 60 µl 1xPBS and 20 µl induction buffer is added using BioTek washer. Subsequently, 10 µl Sunitininb (5 µM f.c.) or the test compound in induction buffer; 0.5% f.c. DMSO (CyBi-well) is transferred to the cells. The cells are then incubated at 37°C for 2, 3, 4h.
The HTRF assay is carried out using Greiner 384-well 784075 assay plates. First 10 µl supernatant is transferred from the cell plates in HTRF plates (CyBi-well). 10 µl of 0, 1, 2, and 4 ng/ml Insulin standard controls in assay medium is used as a control. To each well 10 µl of combined 1:25 Ab-XL665 (Acc) and 1:20 Ab-Eu-Cryptate (WellMate) are added and incubated for 120 min at RT in the dark. Finally HTRF is measured on ViewLux ultra high throughput microplate imager (PerkinElmer).
The evaluation software DataFactoty derives relative activities Ar according to the following equation: Ar = (V-R(0%control))/(R(100%control) -R(0%control)) × 100 [formula] […]
The activity of the compounds was classified according to their Ar (relative activity) into the following ranges: Ar ≥ 100% + + + +; 50% ≤ Ar < 100% + + +; 20% ≤ Ar < 50% + +; 10% < Ar < 20% + [formula] Table 10. Ar (relative activity) values of inventive compounds
Broadly, the Emax is the size of the effect at its maximum, as opposed to the concentration needed. In the case of `O=C(NC1CC1)c1ccc(-c2cnc3cccnn23)cc1` [compound 89, N-cyclopropyl-4-imidazo[1,2-b]pyridazin-3-yl-benzamide], the Emax was 10 to 20%.
The same measure for `CS(=O)(=O)Nc1ccc(-c2cnc3cccnn23)cc1` [compound 96, N-(4-imidazo[1,2-b]pyridazin-3-ylphenyl)methanesulfonamide]: 10 to 20%; for `NC(=O)c1ccc(-c2ccc3ncc(-c4ccccc4)n3n2)cc1` [compound 100, 4-(3-phenylimidazo[1,2-b]pyridazin-6-yl)benzamide]: 20 to 50%; for `c1ccc(-c2ccc3ncc(-c4ccc5c(c4)OCO5)n3n2)cc1` [compound 101, 3-(1,3-benzodioxol-5-yl)-6-phenyl-imidazo[1,2-b]pyridazine]: 20 to 50%.
The same measure for `Fc1cccc(-c2ccc3ncc(-c4ccc5c(c4)OCO5)n3n2)c1` [compound 104, 3-(1,3-benzodioxol-5-yl)-6-(3-fluorophenyl)imidazo[1,2-b]pyridazine]: 20 to 50%; for `CS(=O)(=O)Nc1cccc(-c2ccc3ncc(-c4ccncc4)n3n2)c1` [compound 105, N-[3-[3-(4-pyridyl)imidazo[1,2-b]pyridazin-6-yl]phenyl]methanesulfonamide]: 20 to 50%; for `OCc1ccc(-c2ccc3ncc(-c4cccnc4)n3n2)cc1` [compound 106, [4-[3-(3-pyridyl)imidazo[1,2-b]pyridazin-6-yl]phenyl]methanol]: 20 to 50%.
The same measure for `c1cncc(-c2cnc3ccc(-c4ccoc4)nn23)c1` [compound 107, 6-(3-furyl)-3-(3-pyridyl)imidazo[1,2-b]pyridazine]: 20 to 50%; for `c1cncc(-c2cnc3ccc(-c4cccs4)nn23)c1` [compound 108, 3-(3-pyridyl)-6-(2-thienyl)imidazo[1,2-b]pyridazine]: 20 to 50%.
Take `CC(=O)Nc1cccc(-c2cnc3ccc(-c4cccnc4)nn23)c1` [compound 109, N-[3-[6-(3-pyridyl)imidazo[1,2-b]pyridazin-3-yl]phenyl]acetamide]: the Emax lay in the range of 10 to 20%.
The same measure for `COc1ccccc1-c1ccc2ncc(-c3ccc(F)c(Cl)c3)n2n1` [compound 113, 3-(3-chloro-4-fluoro-phenyl)-6-(2-methoxyphenyl)imidazo[1,2-b]pyridazine]: 20 to 50%; for `COc1cc(-c2ccc3ncc(-c4ccc(F)c(Cl)c4)n3n2)cc(OC)c1OC` [compound 114, 3-(3-chloro-4-fluoro-phenyl)-6-(3,4,5-trimethoxyphenyl)imidazo[1,2-b]pyridazine]: 10 to 20%.
The same measure for `COc1ccccc1-c1ccc2ncc(-c3cccc(OC(F)(F)F)c3)n2n1` [compound 115, 6-(2-methoxyphenyl)-3-[3-(trifluoromethoxy)phenyl]imidazo[1,2-b]pyridazine]: 10 to 20%.
The same measure for `NC(=O)c1ccc(-c2ccc3ncc(-c4cccc(OC(F)(F)F)c4)n3n2)cc1` [compound 117, 4-[3-[3-(trifluoromethoxy)phenyl]imidazo[1,2-b]pyridazin-6-yl]benzamide]: 20 to 50%; for `CS(=O)(=O)c1ccc(-c2cnc3ccc(Cc4ccccc4)nn23)cc1` [compound 119, 6-benzyl-3-(4-methylsulfonylphenyl)imidazo[1,2-b]pyridazine]: 10 to 20%.
For `COc1cncc(-c2cnc3ccc(Cc4ccc(F)cc4)nn23)c1` [compound 122, 6-[(4-fluorophenyl)methyl]-3-(5-methoxy-3-pyridyl)imidazo[1,2-b]pyridazine], the Emax lay within 20 to 50%.
The same measure for `Nc1cccc(-c2ccc3ncc(-c4cccc(Cl)c4)n3n2)c1` [compound 123, 3-[3-(3-chlorophenyl)imidazo[1,2-b]pyridazin-6-yl]an iline]: 20 to 50%; for `COc1ccc(-c2ccc3ncc(-c4cccc(Cl)c4)n3n2)cc1OC` [compound 124, 3-(3-chlorophenyl)-6-(3,4-dimethoxyphenyl)imidazo[1,2-b]pyridazine]: 20 to 50%.
In turn, `COc1ccc(-c2ccc3ncc(-c4cccc(Cl)c4)n3n2)c(C)c1` [compound 125, 3-(3-chlorophenyl)-6-(4-methoxy-2-methyl-phenyl)imidazo[1,2-b]pyridazine] showed an Emax of 10 to 20%.
Then `COc1cccc(-c2ccc3ncc(-c4cccc(Cl)c4)n3n2)c1` [compound 126, 3-(3-chlorophenyl)-6-(3-methoxyphenyl)imidazo[1,2-b]pyridazine], with 10 to 20%.
In the case of `Oc1cccc(-c2cnc3ccc(-c4ccc(F)cc4)nn23)c1` [compound 127, 3-[6-(4-fluorophenyl)imidazo[1,2-b]pyridazin-3-yl]phenol], the Emax lay within 20 to 50%.
In turn, `Oc1cccc(-c2cnc3ccc(-c4cccc5ncccc45)nn23)c1` [compound 128, 3-[6-(5-quinolyl)imidazo[1,2-b]pyridazin-3-yl]phenol] returned an Emax of 10 to 20%.
Then `CN(C)c1ccc(-c2ccc3ncc(-c4ccc(CO)cc4)n3n2)cc1` [compound 129, [4-[6-(4-dimethylaminophenyl)imidazo[1,2-b]pyridazin-3-yl]phenyl]methanol], with 50 to 100%; and `OCc1ccc(-c2cnc3ccc(-c4cncnc4)nn23)cc1` [compound 130, [4-(6-pyrimidin-5-ylimidazo[1,2-b]pyridazin-3-yl)phenyl]methanol], with 10 to 20%.
Then `OCc1cccc(-c2cnc3ccc(-c4cccc(Oc5ccccc5)c4)nn23)c1` [compound 133, [3-[6-(3-phenoxyphenyl)imidazo[1,2-b]pyridazin-3-yl]phenyl]methanol], with 20 to 50%; and `FC(F)(F)c1cccc(-c2cnc3ccc(-c4ccncc4)nn23)c1` [compound 134, 6-(4-pyridyl)-3-[3-(trifluoromethyl)phenyl]imidazo[1,2-b]pyridazine], with 20 to 50%.
In turn, `Oc1cccc(-c2ccc3ncc(-c4cccc(C(F)(F)F)c4)n3n2)c1` [compound 135, 3-[3-[3-(trifluoromethyl)phenyl]imidazo[1,2-b]pyridazin-6-yl]phenol] displayed a maximal response (Emax) of 20 to 50%.
The same measure for `FC(F)(F)c1cccc(-c2cnc3ccc(C4CC4)nn23)c1` [compound 136, 6-cyclopropyl-3-[3-(trifluoromethyl)phenyl]imidazo[1,2-b]pyridazine]: 10 to 20%.
The same measure for `COc1cc(-c2cnc3ccc(-c4cccc(OC(F)(F)F)c4)nn23)ccc1O` [compound 138, 2-methoxy-4-[6-[3-(trifluoromethoxy)phenyl]imidazo[1,2-b]pyridazin-3-yl]phenol]: 10 to 20%.
Then `NC(=O)c1ccc(-c2cnc3ccc(Cc4ccc(F)c(F)c4)nn23)cc1` [compound 145, 4-[6-[(3,4-difluorophenyl)methyl]imidazo[1,2-b]pyridazin-3-yl]benzamide], with 20 to 50%; and `CC(=O)Nc1ccc(-c2cnc3ccc(-c4ccc(N5CCOCC5)cc4)nn23)cc1` [compound 147, N-[4-[6-(4-morpholinophenyl)imidazo[1,2-b]pyridazin-3-yl]phenyl]acetamide], with at least 100%; and `CC(=O)Nc1ccc(-c2cnc3ccc(-c4ccc5c(c4)OCO5)nn23)cc1` [compound 148, N-[4-[6-(1,3-benzodioxol-5-yl)imidazo[1,2-b]pyridazin-3-yl]phenyl]acetamide], with at least 100%.
Regarding `CC(=O)Nc1ccc(-c2cnc3ccc(-c4ccc(S(C)(=O)=O)cc4)nn23)cc1` [compound 149, N-[4-[6-(4-methylsulfonylphenyl)imidazo[1,2-b]pyridazin-3-yl]phenyl]acetamide], the Emax was 10 to 20%.
For the molecule `CC(=O)c1cccc(-c2cnc3ccc(-c4ccc(N)nc4)nn23)c1` [compound 153, 1-[3-[6-(6-amino-3-pyridyl)imidazo[1,2-b]pyridazin-3-yl]phenyl]ethanone], the Emax lay in the range of 20 to 50%.
Then `CN(C)c1cccc(-c2ccc3ncc(-c4cccs4)n3n2)c1` [compound 155, N,N-dimethyl-3-[3-(2-thienyl)imidazo[1,2-b]pyridazin-6-yl]aniline], with 20 to 50%; and `Fc1ccc(-c2ccc3ncc(-c4cccs4)n3n2)cc1Cl` [compound 156, 6-(3-chloro-4-fluoro-phenyl)-3-(2-thienyl)imidazo[1,2-b]pyridazine], with 20 to 50%; and `COc1cc(-c2ccc3ncc(-c4cccs4)n3n2)ccc1O` [compound 157, 2-methoxy-4-[3-(2-thienyl)imidazo[1,2-b]pyridazin-6-yl]phenol], with 20 to 50%.
The same measure for `Clc1ccccc1-c1ccc2ncc(-c3cccs3)n2n1` [compound 158, 6-(2-chlorophenyl)-3-(2-thienyl)imidazo[1,2-b]pyridazine]: 10 to 20%.
